How the values were obtained:
NCI-H929 = experiment: Antiproliferative activity against human NCI-H929 cells assessed as decrease in cell viability measured after 72 hrs by MTT assay; assay type: functional, cell-based; settings: NCI-H929, 72 h
[1] = target: Induced myeloid leukemia cell differentiation protein Mcl-1 (Homo sapiens, UniProt Q07820); experiment: Inhibition of FITC-labeled Bak BH3 peptide binding to GST-tagged MCL1 (171 to 327 residues) (unknown origin) expressed in Escherichia coli BL21 (DE3) incubated for 30 mins fluorescence polarization-based competitive binding assay
K562 = experiment: Antiproliferative activity against human K562 cells assessed as decrease in cell viability measured after 72 hrs by MTT assay; assay type: functional, cell-based; settings: K562, 72 h
SK-BR-3 = experiment: Antiproliferative activity against human SK-BR-3 cells assessed as decrease in cell viability measured after 72 hrs by MTT assay; assay type: functional, cell-based; settings: SK-BR-3, 72 h
Bcl-2-like protein 1 = Bcl-2-like protein 1 (Homo sapiens, UniProt Q07817); experiment: Inhibition of BCL-XL(unknown origin) at 10 uM incubated for 120 mins by TR-FRET assay relative to control
MV4-11 = experiment: Antiproliferative activity against human MV4-11 cells assessed as decrease in cell viability measured after 72 hrs by MTT assay; assay type: functional, cell-based; settings: MV4-11, 72 h
[2] = target: T1, Bcl-2-related protein A1 (Homo sapiens) (UniProt Q16548); experiment: Inhibition of FITC-labeled Bak BH3 peptide binding to GST-tagged BFL1 (1 to 151 residues) (unknown origin) expressed in Escherichia coli BL21 (DE3) at 10 uM incubated for 30 mins fluorescence polarization-based competitive binding assay relative to control
T1 sequence (whole entry): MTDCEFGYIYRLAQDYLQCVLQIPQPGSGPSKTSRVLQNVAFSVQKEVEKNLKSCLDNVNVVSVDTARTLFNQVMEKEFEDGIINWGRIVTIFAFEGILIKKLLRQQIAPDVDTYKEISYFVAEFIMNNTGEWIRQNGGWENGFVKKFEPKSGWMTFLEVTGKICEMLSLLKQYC

NCI-H23 = experiment: Antiproliferative activity against human NCI-H23 cells assessed as decrease in cell viability measured after 72 hrs by MTT assay; assay type: functional, cell-based; settings: NCI-H23, 72 h
[3] = target: Apoptosis regulator Bcl-2 (Homo sapiens, UniProt P10415); experiment: Inhibition of FITC-labeled Bak BH3 peptide binding to GST-tagged BCL2 (1 to 205 residues) (unknown origin) expressed in Escherichia coli BL21 (DE3) at 10 uM incubated for 30 mins fluorescence polarization-based competitive binding assay relative to control
Sequence of Apoptosis regulator Bcl-2 (P10415 whole entry, the tested form may be a part): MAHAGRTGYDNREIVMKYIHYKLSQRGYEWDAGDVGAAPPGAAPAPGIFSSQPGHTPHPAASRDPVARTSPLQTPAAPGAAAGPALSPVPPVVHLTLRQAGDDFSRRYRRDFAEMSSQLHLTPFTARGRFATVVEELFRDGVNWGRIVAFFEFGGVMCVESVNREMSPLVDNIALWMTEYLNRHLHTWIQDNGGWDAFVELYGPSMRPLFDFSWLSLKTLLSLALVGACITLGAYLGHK

Sequence of Induced myeloid leukemia cell differentiation protein Mcl-1 (Q07820 whole entry, the tested form may be a part): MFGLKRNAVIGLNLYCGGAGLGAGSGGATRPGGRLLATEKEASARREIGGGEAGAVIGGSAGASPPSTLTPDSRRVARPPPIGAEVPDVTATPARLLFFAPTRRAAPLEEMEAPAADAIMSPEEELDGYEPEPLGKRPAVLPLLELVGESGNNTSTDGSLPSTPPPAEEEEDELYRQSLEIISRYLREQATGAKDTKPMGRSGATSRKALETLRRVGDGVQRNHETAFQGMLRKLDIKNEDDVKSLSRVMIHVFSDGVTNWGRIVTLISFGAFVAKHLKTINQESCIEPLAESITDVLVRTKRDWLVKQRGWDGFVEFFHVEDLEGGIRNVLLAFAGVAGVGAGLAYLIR
Sequence of Bcl-2-like protein 1 (Q07817 whole entry): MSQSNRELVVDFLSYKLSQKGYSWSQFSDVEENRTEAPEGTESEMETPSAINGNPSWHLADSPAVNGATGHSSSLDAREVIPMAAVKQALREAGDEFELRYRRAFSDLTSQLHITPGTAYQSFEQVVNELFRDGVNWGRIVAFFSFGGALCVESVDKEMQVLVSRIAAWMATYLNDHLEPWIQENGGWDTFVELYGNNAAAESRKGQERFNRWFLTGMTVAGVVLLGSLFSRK

Row | SMILES | Ki [1] [nM] | other results
1 | Cc1cc(OCCCn2c(C)c(S(=O)(=O)c3ccc(Br)cc3)c(C)c2C(=O)O)cc(C)c1Cl | 40 | IC50 (NCI-H929): 480 nM; IC50 (K562): > 30000 nM; IC50 (SK-BR-3): 5600 nM; inhibition (Bcl-2-like protein 1): 13%; IC50 (MV4-11): 1700 nM; inhibition [2]: 4.14%; IC50 (NCI-H23): 3840 nM; inhibition [3]: 11.6%
2 | Cc1cc(OCCCn2c(C)c(S(=O)(=O)C3CCCC3)c(C)c2C(=O)O)cc(C)c1Cl | > 10000 | –
3 | Cc1cc(OCCCn2c(C)c(S(=O)(=O)c3ccc(F)cc3)c(C)c2C(=O)O)cc(C)c1Cl | 260 | –
4 | Cc1ccc(S(=O)(=O)c2c(C)c(C(=O)O)n(CCCOc3cc(C)c(Cl)c(C)c3)c2CC(C)C)cc1 | 1600 | –
5 | Cc1ccc(Sc2c(C)c(C(=O)O)n(CCCOc3cc(C)c(Cl)c(C)c3)c2C)cc1 | 680 | –
6 | Cc1cc(OCCCn2c(C)c(S(=O)(=O)c3ccccc3O)c(C)c2C(=O)O)cc(C)c1Cl | 150 | –
7 | Cc1cc(OCCCn2c(C)c(S(=O)(=O)c3ccc(Cl)cc3)c(C)c2C(=O)O)cc(C)c1Cl | 180 | –
8 | CC(=O)c1ccccc1S(=O)(=O)c1c(C)c(C(=O)O)n(CCCOc2cc(C)c(Cl)c(C)c2)c1C | 500 | –
9 | Cc1ccc(S(=O)(=O)Nc2cc(C(=O)O)n(CCCOc3cc(C)c(Cl)c(C)c3)c2)cc1 | > 10000 | –
10 | Cc1cc(OCCCn2c(C)c(S(=O)(=O)c3cccc(O)c3)c(C)c2C(=O)O)cc(C)c1Cl | 150 | –
11 | Cc1cc(OCCCn2c(C)c(S(=O)(=O)c3ccncc3)c(C)c2C(=O)O)cc(C)c1Cl | 900 | –
12 | Cc1cc(OCCCn2c(C)c(S(=O)(=O)c3ccc(N)cc3)c(C)c2C(=O)O)cc(C)c1Cl | 340 | –
13 | Cc1cc(OCCCn2c(C)c(S(=O)(=O)c3cccc(Br)c3)c(C)c2C(=O)O)cc(C)c1Cl | 60 | –
14 | Cc1cc(OCCCn2c(C)c(S(=O)(=O)c3cccc4ccccc34)c(C)c2C(=O)O)cc(C)c1Cl | 360 | –
15 | Cc1ccc(S(=O)(=O)c2cn(CCCOc3cc(C)c(Cl)c(C)c3)c(C(=O)O)c2C)cc1 | 810 | –
16 | CCc1ccc(S(=O)(=O)c2c(C)c(C(=O)O)n(CCCOc3cc(C)c(Cl)c(C)c3)c2C)cc1 | 70 | IC50 (NCI-H929): 490 nM; IC50 (K562): > 30000 nM; IC50 (SK-BR-3): 3920 nM; inhibition (Bcl-2-like protein 1): 36%; IC50 (MV4-11): 2590 nM; inhibition [2]: 8.77%; IC50 (NCI-H23): 5410 nM; inhibition [3]: 12.4%
17 | Cc1cc(OCCCn2c(C)c(S(=O)(=O)c3ccc(C(=O)O)cc3)c(C)c2C(=O)O)cc(C)c1Cl | 420 | –
18 | Cc1cc(OCCCn2c(C)c(S(=O)(=O)c3ccc(C(=O)c4ccccc4)cc3)c(C)c2C(=O)O)cc(C)c1Cl | 380 | –
19 | Cc1ccc(CNc2cc(C(=O)O)n(CCCOc3cc(C)c(Cl)c(C)c3)c2)cc1 | > 10000 | –
20 | Cc1cc(OCCCn2c(C)c(S(=O)(=O)c3cccs3)c(C)c2C(=O)O)cc(C)c1Cl | 80 | IC50 (NCI-H929): 700 nM; IC50 (K562): 11300 nM; IC50 (SK-BR-3): 5130 nM; inhibition (Bcl-2-like protein 1): 37%; IC50 (MV4-11): 2300 nM; IC50 (NCI-H23): 3100 nM; inhibition [3]: 7.54%
21 | Cc1cc(C)cc(S(=O)(=O)c2c(C)c(C(=O)O)n(CCCOc3cc(C)c(Cl)c(C)c3)c2C)c1 | > 10000 | –
22 | Cc1cc(OCCCn2c(C)c(S(=O)(=O)c3ccccn3)c(C)c2C(=O)O)cc(C)c1Cl | 1900 | –
23 | Cc1cc(OCCCn2c(C)c(S(=O)(=O)Cc3ccccc3)c(C)c2C(=O)O)cc(C)c1Cl | 2000 | –
24 | CC(=O)c1cccc(S(=O)(=O)c2c(C)c(C(=O)O)n(CCCOc3cc(C)c(Cl)c(C)c3)c2C)c1 | 550 | –
